Tested on: Stress protein genes
Test: DNA chip mRNA expression in yeast, stress protein genes (Table 6)
Format: cell-based, Saccharomyces cerevisiae S288C
Procedure, shortened: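 S. cerevisiae S288C grown at 25° C in YPD were exposed in log phase for two hours to one toxic chemical at a growth-inhibiting, non-lethal concentration; untreated cells served as control. Poly(A) mRNA was reverse-transcribed with Cy3/Cy5-dUTP and hybridized to a whole-genome yeast DNA chip at 65° C for over 12 hours; values are fluorescence ratios versus untreated.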

SMILES: CCCCC[C@H](O)CC(=O)CCc1ccc(O)c(OC)c1 [(13), gingerol]
- The level of expressed mRNA in the presence of chemical substance/The level of expressed mRNA in the absence of chemical substance (yeast gene YAL015C): 1.2
- The level of expressed mRNA in the presence of chemical substance/The level of expressed mRNA in the absence of chemical substance (yeast gene YBL093C): 2.1
- The level of expressed mRNA in the presence of chemical substance/The level of expressed mRNA in the absence of chemical substance (yeast gene YBR044C): 1.2
- The level of expressed mRNA in the presence of chemical substance/The level of expressed mRNA in the absence of chemical substance (yeast gene YBR054W): 1.5
- The level of expressed mRNA in the presence of chemical substance/The level of expressed mRNA in the absence of chemical substance (yeast gene YBR067C): 0.9
- The level of expressed mRNA in the presence of chemical substance/The level of expressed mRNA in the absence of chemical substance (yeast gene YBR126C): 2.1
- The level of expressed mRNA in the presence of chemical substance/The level of expressed mRNA in the absence of chemical substance (yeast gene YCL035C): 2.8
- The level of expressed mRNA in the presence of chemical substance/The level of expressed mRNA in the absence of chemical substance (yeast gene YCR021C): 0.9
- The level of expressed mRNA in the presence of chemical substance/The level of expressed mRNA in the absence of chemical substance (yeast gene YCR083W): 1.8
- The level of expressed mRNA in the presence of chemical substance/The level of expressed mRNA in the absence of chemical substance (yeast gene YDL022W): 1.5
- The level of expressed mRNA in the presence of chemical substance/The level of expressed mRNA in the absence of chemical substance (yeast gene YDL025C): 1.2
- The level of expressed mRNA in the presence of chemical substance/The level of expressed mRNA in the absence of chemical substance (yeast gene YDR033W): 0.7
- The level of expressed mRNA in the presence of chemical substance/The level of expressed mRNA in the absence of chemical substance (yeast gene YDR077W): 1.0
- The level of expressed mRNA in the presence of chemical substance/The level of expressed mRNA in the absence of chemical substance (yeast gene YDR098C): 1.2
- The level of expressed mRNA in the presence of chemical substance/The level of expressed mRNA in the absence of chemical substance (yeast gene YDR155C): 3.3
- The level of expressed mRNA in the presence of chemical substance/The level of expressed mRNA in the absence of chemical substance (yeast gene YDR293C): 2.3
- The level of expressed mRNA in the presence of chemical substance/The level of expressed mRNA in the absence of chemical substance (yeast gene YDR513W): 1.8
- The level of expressed mRNA in the presence of chemical substance/The level of expressed mRNA in the absence of chemical substance (yeast gene YDR519W): 2.5
- The level of expressed mRNA in the presence of chemical substance/The level of expressed mRNA in the absence of chemical substance (yeast gene YEL039C): 0.5
- The level of expressed mRNA in the presence of chemical substance/The level of expressed mRNA in the absence of chemical substance (yeast gene YER042W): 1.4
- The level of expressed mRNA in the presence of chemical substance/The level of expressed mRNA in the absence of chemical substance (yeast gene YER057C): 1.0
- The level of expressed mRNA in the presence of chemical substance/The level of expressed mRNA in the absence of chemical substance (yeast gene YER125W): 1.9
- The level of expressed mRNA in the presence of chemical substance/The level of expressed mRNA in the absence of chemical substance (yeast gene YFL014W): 15.2
- The level of expressed mRNA in the presence of chemical substance/The level of expressed mRNA in the absence of chemical substance (yeast gene YFL016C): 2.8
- The level of expressed mRNA in the presence of chemical substance/The level of expressed mRNA in the absence of chemical substance (yeast gene YFL020C): 1.4
- The level of expressed mRNA in the presence of chemical substance/The level of expressed mRNA in the absence of chemical substance (yeast gene YFR052W): 3.8
- The level of expressed mRNA in the presence of chemical substance/The level of expressed mRNA in the absence of chemical substance (yeast gene YGL073W): 1.5
- The level of expressed mRNA in the presence of chemical substance/The level of expressed mRNA in the absence of chemical substance (yeast gene YGL115W): 0.7
- The level of expressed mRNA in the presence of chemical substance/The level of expressed mRNA in the absence of chemical substance (yeast gene YGR088W): 1.2
- The level of expressed mRNA in the presence of chemical substance/The level of expressed mRNA in the absence of chemical substance (yeast gene YHL028W): 2.1
- The level of expressed mRNA in the presence of chemical substance/The level of expressed mRNA in the absence of chemical substance (yeast gene YHL046C): 1.4
- The level of expressed mRNA in the presence of chemical substance/The level of expressed mRNA in the absence of chemical substance (yeast gene YHR030C): 1.0
- The level of expressed mRNA in the presence of chemical substance/The level of expressed mRNA in the absence of chemical substance (yeast gene YHR057C): 1.9
- The level of expressed mRNA in the presence of chemical substance/The level of expressed mRNA in the absence of chemical substance (yeast gene YHR104W): 1.2
- The level of expressed mRNA in the presence of chemical substance/The level of expressed mRNA in the absence of chemical substance (yeast gene YIL011W): 0.5
- The level of expressed mRNA in the presence of chemical substance/The level of expressed mRNA in the absence of chemical substance (yeast gene YIL033C): 2.5
- The level of expressed mRNA in the presence of chemical substance/The level of expressed mRNA in the absence of chemical substance (yeast gene YIR037W): 2.4
- The level of expressed mRNA in the presence of chemical substance/The level of expressed mRNA in the absence of chemical substance (yeast gene YIR038C): 2.5
- The level of expressed mRNA in the presence of chemical substance/The level of expressed mRNA in the absence of chemical substance (yeast gene YJL128C): 1.7
- The level of expressed mRNA in the presence of chemical substance/The level of expressed mRNA in the absence of chemical substance (yeast gene YJL159W): 1.7
- The level of expressed mRNA in the presence of chemical substance/The level of expressed mRNA in the absence of chemical substance (yeast gene YJL165C): 1.5
- The level of expressed mRNA in the presence of chemical substance/The level of expressed mRNA in the absence of chemical substance (yeast gene YJR045C): 2.3
- The level of expressed mRNA in the presence of chemical substance/The level of expressed mRNA in the absence of chemical substance (yeast gene YJR090C): 2.2
- The level of expressed mRNA in the presence of chemical substance/The level of expressed mRNA in the absence of chemical substance (yeast gene YKL161C): 1.3
- The level of expressed mRNA in the presence of chemical substance/The level of expressed mRNA in the absence of chemical substance (yeast gene YKL163W): 1.5
- The level of expressed mRNA in the presence of chemical substance/The level of expressed mRNA in the absence of chemical substance (yeast gene YKL164C): 0.9
- The level of expressed mRNA in the presence of chemical substance/The level of expressed mRNA in the absence of chemical substance (yeast gene YKL210W): 2.9
- The level of expressed mRNA in the presence of chemical substance/The level of expressed mRNA in the absence of chemical substance (yeast gene YKR053C): 0.7
- The level of expressed mRNA in the presence of chemical substance/The level of expressed mRNA in the absence of chemical substance (yeast gene YLL039C): 2.2
- The level of expressed mRNA in the presence of chemical substance/The level of expressed mRNA in the absence of chemical substance (yeast gene YLL060C): 1.8
- The level of expressed mRNA in the presence of chemical substance/The level of expressed mRNA in the absence of chemical substance (yeast gene YLR006C): 0.8
- The level of expressed mRNA in the presence of chemical substance/The level of expressed mRNA in the absence of chemical substance (yeast gene YLR109W): 3.2
- The level of expressed mRNA in the presence of chemical substance/The level of expressed mRNA in the absence of chemical substance (yeast gene YLR259C): 2.5
- The level of expressed mRNA in the presence of chemical substance/The level of expressed mRNA in the absence of chemical substance (yeast gene YML007W): 1.7
- The level of expressed mRNA in the presence of chemical substance/The level of expressed mRNA in the absence of chemical substance (yeast gene YMR021C): 1.4
- The level of expressed mRNA in the presence of chemical substance/The level of expressed mRNA in the absence of chemical substance (yeast gene YMR173W): 2.0
- The level of expressed mRNA in the presence of chemical substance/The level of expressed mRNA in the absence of chemical substance (yeast gene YMR186W): 2.4
- The level of expressed mRNA in the presence of chemical substance/The level of expressed mRNA in the absence of chemical substance (yeast gene YNL064C): 1.1
- The level of expressed mRNA in the presence of chemical substance/The level of expressed mRNA in the absence of chemical substance (yeast gene YNR076W): 0.9
- The level of expressed mRNA in the presence of chemical substance/The level of expressed mRNA in the absence of chemical substance (yeast gene YOL064C): 2.0
- The level of expressed mRNA in the presence of chemical substance/The level of expressed mRNA in the absence of chemical substance (yeast gene YOL161C): 1.2
- The level of expressed mRNA in the presence of chemical substance/The level of expressed mRNA in the absence of chemical substance (yeast gene YOR008C): 0.9
- The level of expressed mRNA in the presence of chemical substance/The level of expressed mRNA in the absence of chemical substance (yeast gene YOR010C): 0.5
- The level of expressed mRNA in the presence of chemical substance/The level of expressed mRNA in the absence of chemical substance (yeast gene YOR027W): 5.1
- The level of expressed mRNA in the presence of chemical substance/The level of expressed mRNA in the absence of chemical substance (yeast gene YOR208W): 1.5
- The level of expressed mRNA in the presence of chemical substance/The level of expressed mRNA in the absence of chemical substance (yeast gene YPL059W): 0.7
- The level of expressed mRNA in the presence of chemical substance/The level of expressed mRNA in the absence of chemical substance (yeast gene YPL106C): 3.1
- The level of expressed mRNA in the presence of chemical substance/The level of expressed mRNA in the absence of chemical substance (yeast gene YPL140C): 0.9
- The level of expressed mRNA in the presence of chemical substance/The level of expressed mRNA in the absence of chemical substance (yeast gene YPL194W): 1.4
- The level of expressed mRNA in the presence of chemical substance/The level of expressed mRNA in the absence of chemical substance (yeast gene YPL223C): 2.3
- The level of expressed mRNA in the presence of chemical substance/The level of expressed mRNA in the absence of chemical substance (yeast gene YPL240C): 2.9
- The level of expressed mRNA in the presence of chemical substance/The level of expressed mRNA in the absence of chemical substance (yeast gene YPR005C): 0.7
- The level of expressed mRNA in the presence of chemical substance/The level of expressed mRNA in the absence of chemical substance (yeast gene YPR026W): 2.3

Reference: US8192962B2, “Processes for detecting toxic substances” (Daikin Industries, Ltd., priority 2001, dated 2012)
